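How tested: cells in 96-well plates exposed to compound for 48 hours at five concentrations. Here, GI50 denotes the concentration required for 50% inhibition of growth. At the TGI there is no net growth.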
Test system: MDA-MB-468 breast
Assay: NCI tumour cell line growth inhibition, 48 h

SMILES	GI50 [µM]	TGI [µM]
CCC(=O)O[C@H]1CC[C@H]2[C@@H]3CC[C@H]4CC(=O)[C@H](C)C[C@]4(C)[C@H]3CC[C@]12C	33.9	> 100
O=C(/C=C/C12c3ccccc3C(c3ccccc31)C1C(=O)N(c3ccccc3)C(=O)C12)c1ccccc1 (configuration not stated)	1.87	7.71
CC1(C)CC[C@H](Nc2ncc(C(F)(F)F)c(-c3c[nH]c4c(P(C)(C)=O)c(C#N)ccc34)n2)CN1	1.22	5.11
O=Nc1c(-c2c(O)[nH]c3ccc([N+](=O)[O-])cc23)[nH]c2ccc(O)cc12	0.359	2.85
COc1cc2c(c(OC)c1OC)-c1ccc(N)c(=O)cc1[C@@H](NC(C)=O)CC2	< 0.01	–
Oc1ccc(C(c2ccc(O)cc2)c2ccc(Cl)cn2)cc1	0.116	0.577
COc1ccc(N2Cc3cnc(Nc4ccccc4)nc3N([C@@H]3CC[C@@H](O)C3)C2=O)cc1	6.65	> 25
CCOC(=O)C1(Br)C(c2ccccc2)NC(=O)NC1(C)Br (configuration not stated)	24	70.5
CCc1n(Cc2ccc3ccccc3n2)cc[n+]1Cc1ccc2ccccc2n1	–	0.0994
C[C@H](NC(=O)[C@@H]1CSSC[C@@H](NC(=O)c2nc3ccccc3cc2O)C(=O)NCC(=O)N1C)c1ccccc1	5.89	13.2
CCn1c(C(=O)N(C2CC2)C2CC2)cc2c3c(ncn3C)c(Nc3cc(C)n(C)n3)nc21	> 100	> 100
O=[N+]([O-])c1ccc(S(=O)Cc2ccccc2)c([N+](=O)[O-])c1 (configuration not stated)	1.7	3.13
Clc1ccc(N2N=C(c3cccc(Nc4ccncc4)c3)CC2c2ccc3c(c2)OCO3)cc1 (configuration not stated)	1.59	3.08
COc1ccc(Nc2ncc(Br)c(NCCCNC(=O)C3CCC3)n2)cc1	15.4	37
FC(F)(F)c1cc(-c2nnc3n2N=C(N2CCCC2)CS3)cc(C(F)(F)F)c1	32	> 50
C=C1SC(=Nc2c(C)cc(C)cc2C)N(C(=O)c2sc3ccccc3c2Cl)C12CCCCC2	> 100	> 100
O=C1C(c2c[nH]c3ccccc23)=C(c2c[nH]c3ccccc23)C(=O)N1O	> 25	> 25
